# Source: patent US20220023274A1, “USE OF A BERBERIS AND RESVERATROL MIXTURE TO CONTROL DYSLIPIDEMIA” (priority 2018, published 2022)
# Experiments:
# [1] = system: Low-Density lipoprotein Receptor (LDL-R); experiment: Transcriptional expression of the LDL receptor in hepatocytes in vitro (Example 1, FIG. 1); format: cell-based; details: 24 hours, Berberine 5 μg/mL, Resveratrol 3 μM, each applied alone, vs CTRL (no treatments)
# Description: It could be said that the concentration tested is bio-equivalent to that of Berberine with a concentration of 50% higher than that administered according to the work of Kong et to 2004. (Kong W, Wei J, Abidi P, Lin M, Inaba S, Li C, Wang Y, Wang Z, Si S, Pan H, 10 Wang S, Wu J, Wang Y, Li Z, Liu J, Jiang J D. Berberine is a novel cholesterol-lowering drug working through a unique mechanism distinct from statins. Nat Med. 2004 December; 10(12):1344-51)).
# Resveratrol being without effect alone is therefore a synergy, never observed before. The innovation is therefore in having observed a synergy between resveratrol and berberine with resveratrol which enhances the effects of berberine in the expression of LDL-R. The results are summarized in FIG. 1.
# plasma LDL concentration = experiment: Case reports of subjects (n=4): plasma LDL concentration, reduction compared to nontreated condition (FIG. 2); format: in vivo, human; details: n=4 subjects; berberine 500 mg alone or with 48 mg resveratrol (pure, or as 160 mg REVIFAST)
# Description: Information were also collected from case reports of a number of subjects supplemented in their diet substantially as above.
# As it can be seen, when the subjects are supplemented with berberine the levels of LDL cholesterol were reduced. […] It is therefore believed that it is the way in which resveratrol is absorbed that influences the synergistic action of resveratrol to reduce LDL cholesterol by berberine.
# LDL cholesterol = experiment: Case report: LDL cholesterol level under dietary supplementation (Example 9); format: in vivo, human; details: The patient, initial LDL cholesterol 3.91 mM; berberine 500 mg for 1 month; Revifast dosage as in examples 2-5
# Method: […] The patient is […] and is classified borderline for the lipid profile with an LDL cholesterol level of 3.91 mM. In their dietary supplement scheme, they took a berberine 500 mg supplement separately for 1 month, taking lipoprotein levels to 3.4 mM. […] The quantities assumed by […] FG are such that the dosage used is that shown in examples 2-5.
transcription of the LDL receptor (effect in words) [1],SMILES,effect on plasma LDL cholesterol (in words) (plasma LDL concentration),LDL cholesterol level (plasma concentration) (LDL cholesterol) [mM]
tends to increase,COc1ccc2cc3[n+](cc2c1OC)CCc1cc2c(cc1-3)OCO2 [Berberine],reduced,3.4
no apparent effect,"Oc1ccc(C=Cc2cc(O)cc(O)c2)cc1 [resveratrol, 3,5,4′-trihydroxystilbene]",,
